We go through one compound from patent publication US5202309A, “Antibiotic cyclopeptide fermentation product” (Merck & Co., Inc., priority 1991, dated 1993).

Numbered stars: 1 amine (or outer) side, 2 acyl side, 3 side chain; on linkers, the order of the positions; unused ones are H or OH. Bridge positions count the residues as written; N and C are the ends. Square brackets hold non-standard residues; d marks the D form. Peptide text beside a SMILES is read from it. * marks the point of attachment. Orn(4R-OH,5R-OH) = O=C([C@H](C[C@@H](O)[C@@H](O)N[*:3])N[*:1])[*:2]; Tetradecanoyl(10R,12S-Me2) = CC[C@H](C)C[C@H](C)CCCCCCCCC(=O)*; hTyr(3S-OH,4S-OH) = N[C@H](C(=O)O)[C@H](O)[C@@H](O)c1ccc(O)cc1; Gln(3R-OH) = NC(=O)C[C@@H](O)[C@H](N)C(=O)O; Pro(3S-OH) = O=C(O)[C@H]1NCC[C@@H]1O; Hyp = O=C(O)[C@@H]1C[C@@H](O)CN1

The test system of assay [1] is Candida parapsilosis. As to the kind of experiment: Microbroth dilution assay in YNBD, minimum fungicidal concentration. Type of assay: cell-based. The settings on record: Candida parapsilosis MY 1010, 35° C. 24 hours, then Sabouraud dextrose agar 24 hours at 28° C. On the procedure:
(§1) The compounds were further diluted to 256 μg/ml in YNBD. […] After incubation, each culture was diluted in sterile water to yield a final concentration of 1-5×10^6 colony forming units (CFU)/ml.

The test system of assay [2] is Candida albicans. The assay is described as above. Type of assay: cell-based. The settings on record: then Sabouraud dextrose agar 24 hours at 28° C. The procedure:
as §1

Take `CC[C@H](C)C[C@H](C)CCCCCCCCC(=O)N[C@H]1C[C@@H](O)[C@@H](O)NC(=O)[C@@H]2[C@@H](O)CCN2C(=O)[C@H]([C@H](O)CC(N)=O)NC(=O)[C@H]([C@H](O)[C@@H](O)c2ccc(O)cc2)NC(=O)[C@@H]2C[C@@H](O)CN2C(=O)[C@H]([C@@H](C)O)NC1=O` [Compound I, 1-[4,5-dihydroxy-N^2-(10,12-dimethyl-1-oxotetradecyl)ornithine]-5-(3-hydroxy-glutamine)-6-(3-hydroxyproline)echinocandin B] ({Tetradecanoyl(10R,12S-Me2)}-[Orn(4R-OH,5R-OH)]T[Hyp][hTyr(3S-OH,4S-OH)][Gln(3R-OH)][Pro(3S-OH)]; lactam 1-C): the “Minimum Fungicidal Concentration” value in assay [1] was found to be 8.0 µg/mL; in assay [2] (Candida albicans MY 1208, 35° C. 24 hours), 0.5 µg/mL; in assay [2] (Candida albicans MY 1783, 35° C. 24 hours) it was 0.5 µg/mL.
